Reference: ChEMBL document CHEMBL4483862, “Open-source discovery of chemical leads for next-generation chemoprotective antimalarials” (2018)

Tested on: Plasmodium berghei
Test: Luciferase/luciferin-expressing antifolate-resistant parasites were used to infect a culture of HepG2 cells that were pre-incubated with compounds. Infected hepatocytes emit light due to the luciferase reaction. Assay results are presented as the percent inhibition of light emission compared to control. […]
Assay type: functional
Conditions: sporozoite; for IC90: read-out: LUCIFERASE INFECTION ASSAY - IC90
[1] = PBLUC_HILL_SLOPE 3.93, PBLUC_R_SQUARED 0.959, read-out: LUCIFERASE INFECTION ASSAY - IC50

Row | Compound | IC90 [µM] | other results
1 | Cc1nn(Cc2ccccc2)c(Cl)c1/C=C/C(=O)OC(C)C(=O)N1CCCC1 (configuration not stated) | 4.19 | IC50 (PBLUC_HILL_SLOPE 3.98, PBLUC_R_SQUARED 0.412, read-out: LUCIFERASE INFECTION ASSAY - IC50): 2.41 µM
2 | O=C(Nc1ccc(Cl)cc1)/C(=C/c1ccc([N+](=O)[O-])cc1)c1nc2ccccc2s1 | > 10 | IC50 (PBLUC_HILL_SLOPE 3.91, PBLUC_R_SQUARED 0.341, read-out: LUCIFERASE INFECTION ASSAY - IC50): 7.67 µM
3 | Cc1ccc(NC(=O)Nc2ccc(Cl)c(Cl)c2)nc1 | 9.58 | IC50 (PBLUC_HILL_SLOPE 3.93, PBLUC_R_SQUARED 0.477, read-out: LUCIFERASE INFECTION ASSAY - IC50): 5.48 µM
4 | COc1cc(OC)cc(-c2cnc3cnc(-c4cccc(OC(C)C)c4)cn23)c1 | > 8.47 | IC50 (PBLUC_HILL_SLOPE 3.99, PBLUC_R_SQUARED 0.348, read-out: LUCIFERASE INFECTION ASSAY - IC50): 6.48 µM
5 | CC(C)(C)c1cc(C(=O)Nc2ccccc2)n(Cc2ccc(Cl)cc2Cl)n1 | > 8.2 | IC50 (PBLUC_HILL_SLOPE 3.9, PBLUC_R_SQUARED 0.166, read-out: LUCIFERASE INFECTION ASSAY - IC50): 5.99 µM
6 | Cc1ccc(C)c(S(=O)(=O)N(CC(=O)N2CCN(C(=O)c3ccco3)CC2)c2cccc(C(F)(F)F)c2)c1 | 8.16 | IC50 (PBLUC_HILL_SLOPE 4.06, PBLUC_R_SQUARED 0.673, read-out: LUCIFERASE INFECTION ASSAY - IC50): 4.75 µM
7 | O=C1NCC(CSc2nc3cc(Cl)ccc3c(=O)n2C2CCCCC2)O1 (configuration not stated) | 7.92 | IC50 (PBLUC_HILL_SLOPE 3.9, PBLUC_R_SQUARED 0.536, read-out: LUCIFERASE INFECTION ASSAY - IC50): 4.51 µM
8 | COc1ccc(-c2cnc3cnc(/C=C/c4ccccc4)cn23)cc1 | 2.11 | IC50 (PBLUC_HILL_SLOPE 3.95, PBLUC_R_SQUARED 0.779, read-out: LUCIFERASE INFECTION ASSAY - IC50): 1.21 µM
9 | CCOC(=O)c1c(C)oc2nc(CN(C)Cc3ccc(OCC)cc3)nc(N)c12 | 8.75 | IC50 (PBLUC_HILL_SLOPE 4.1, PBLUC_R_SQUARED 0.674, read-out: LUCIFERASE INFECTION ASSAY - IC50): 5.12 µM
10 | Cc1nc2cc(NC(=O)CCCSc3nc4ccccc4[nH]3)ccc2o1 | > 10 | IC50 (PBLUC_HILL_SLOPE 4.06, PBLUC_R_SQUARED 0.0694, read-out: LUCIFERASE INFECTION ASSAY - IC50): 9.96 µM
11 | CCOc1ccc2c(c1)sc(=N)n2Cc1ccc(Cl)cc1 | > 10 | IC50 (PBLUC_HILL_SLOPE 3.98, PBLUC_R_SQUARED 0.233, read-out: LUCIFERASE INFECTION ASSAY - IC50): 6.2 µM
12 | FC(F)(F)Oc1cccc(-c2cnc3ccc(-c4cccs4)nn23)c1 | 7.53 | IC50 (PBLUC_HILL_SLOPE 4.13, PBLUC_R_SQUARED 0.323, read-out: LUCIFERASE INFECTION ASSAY - IC50): 4.43 µM
13 | CC(C)Cn1c(-c2ccccc2F)nc2c(c(=O)c3ccccc3n2C)c1=O | 7.64 | IC50 (PBLUC_HILL_SLOPE 4.02, PBLUC_R_SQUARED 0.715, read-out: LUCIFERASE INFECTION ASSAY - IC50): 4.42 µM
14 | COc1cccc(-c2cn3c(-c4ccccc4Cl)cnc3cn2)c1F | 6.25 | IC50 (PBLUC_HILL_SLOPE 4, PBLUC_R_SQUARED 0.571, read-out: LUCIFERASE INFECTION ASSAY - IC50): 3.61 µM
15 | FC(F)(F)Oc1cccc(-c2cnc3ccc(-c4cncnc4)nn23)c1 | 3.91 | IC50 (PBLUC_HILL_SLOPE 4.12, PBLUC_R_SQUARED 0.479, read-out: LUCIFERASE INFECTION ASSAY - IC50): 2.29 µM
16 | N#C/C(=C\Nc1cc(C(F)(F)F)cc(C(F)(F)F)c1)S(=O)(=O)c1ccc(OC(F)(F)F)cc1 | > 6.54 | IC50 (PBLUC_HILL_SLOPE 4.15, PBLUC_R_SQUARED 0.029, read-out: LUCIFERASE INFECTION ASSAY - IC50): > 6.54 µM
17 | CCc1nn2c(NCc3ccccn3)cc(C)nc2c1-c1ccccc1 | > 9.61 | IC50 (PBLUC_HILL_SLOPE 4, PBLUC_R_SQUARED 0.354, read-out: LUCIFERASE INFECTION ASSAY - IC50): 6.15 µM
18 | CC(Oc1ccc2ccc(=O)oc2c1)C(=O)N1CCc2ccccc21 (configuration not stated) | 6.27 | IC50 (PBLUC_HILL_SLOPE 3.92, PBLUC_R_SQUARED 0.713, read-out: LUCIFERASE INFECTION ASSAY - IC50): 3.58 µM
19 | CC(C)(C)c1cc(NC(=O)Nc2ccc(C#N)cc2)n(-c2ccccc2)n1 | 0.0487 | IC50 [1]: 0.0279 µM
20 | Cc1cc(C)n(-c2ccc(NC(=O)C3(c4ccccc4)CC3)cn2)n1 | 0.834 | IC50 (PBLUC_HILL_SLOPE 3.93, PBLUC_R_SQUARED 0.515, read-out: LUCIFERASE INFECTION ASSAY - IC50): 0.477 µM
21 | CC(OC(=O)c1cccc(-n2cccc2)c1)C(=O)N1CCCC1 (configuration not stated) | 8.03 | IC50 (PBLUC_HILL_SLOPE 4.03, PBLUC_R_SQUARED 0.34, read-out: LUCIFERASE INFECTION ASSAY - IC50): 4.65 µM

Row | Compound | IC90 [µM] | other results
22 | Cc1cc(NCc2ccccn2)n2ncc(-c3ccccc3Cl)c2n1 | > 9.43 | IC50 (PBLUC_HILL_SLOPE 4.03, PBLUC_R_SQUARED 0.181, read-out: LUCIFERASE INFECTION ASSAY - IC50): 5.66 µM
23 | c1ccc(-c2cc(NCCCn3ccnc3)nc3ccccc23)cc1 | 8.58 | IC50 (PBLUC_HILL_SLOPE 4.01, PBLUC_R_SQUARED 0.225, read-out: LUCIFERASE INFECTION ASSAY - IC50): 4.96 µM
24 | O=C(c1nn(-c2ccccc2)c(=O)c2ccccc12)N(CCCN1CCOCC1)Cc1cccs1 | > 10 | IC50 (PBLUC_HILL_SLOPE 4.06, PBLUC_R_SQUARED 0.124, read-out: LUCIFERASE INFECTION ASSAY - IC50): 8.65 µM
25 | COc1ccc(-n2nc(C)c3c(=O)c(Cl)c(C)[nH]c32)cc1 | > 10.9 | IC50 (PBLUC_HILL_SLOPE 4.15, PBLUC_R_SQUARED 0.0529, read-out: LUCIFERASE INFECTION ASSAY - IC50): 10.4 µM
26 | O=C(Nc1nc(C23CC4CC(CC(C4)C2)C3)cs1)C1=COCCO1 | > 10 | IC50 (PBLUC_HILL_SLOPE 3.95, PBLUC_R_SQUARED 0.0619, read-out: LUCIFERASE INFECTION ASSAY - IC50): 7.07 µM
27 | Cc1cc(C)n(-c2nc(-c3ccccc3)cc(N3CCCCCC3)n2)n1 | 7.45 | IC50 (PBLUC_HILL_SLOPE 3.96, PBLUC_R_SQUARED 0.269, read-out: LUCIFERASE INFECTION ASSAY - IC50): 4.28 µM
28 | Cc1cc2ncc(-c3ccnc(SCc4cccc(Cl)c4)n3)c(C)n2n1 | 8.63 | IC50 (PBLUC_HILL_SLOPE 3.9, PBLUC_R_SQUARED 0.625, read-out: LUCIFERASE INFECTION ASSAY - IC50): 4.91 µM
29 | CN(C)Cc1ccccc1NC(=O)Nc1ccc(Cl)cc1 | 7.23 | IC50 (PBLUC_HILL_SLOPE 3.91, PBLUC_R_SQUARED 0.658, read-out: LUCIFERASE INFECTION ASSAY - IC50): 4.13 µM
30 | Cn1ccnc1Sc1ncnc2ccsc12 | 9.45 | IC50 (PBLUC_HILL_SLOPE 4.08, PBLUC_R_SQUARED 0.748, read-out: LUCIFERASE INFECTION ASSAY - IC50): 5.51 µM
31 | CC(Sc1nc(N)c2ccsc2n1)c1nc(-c2ccccc2)no1 (configuration not stated) | > 10 | IC50 (PBLUC_HILL_SLOPE 3.96, PBLUC_R_SQUARED 0.141, read-out: LUCIFERASE INFECTION ASSAY - IC50): > 10 µM
32 | O=C(CN1C(=O)NC(Cc2ccccc2)(c2ccccc2)C1=O)N1CCc2ccccc2C1 (configuration not stated) | > 10 | IC50 (PBLUC_HILL_SLOPE 3.92, PBLUC_R_SQUARED 0.472, read-out: LUCIFERASE INFECTION ASSAY - IC50): 7.9 µM
33 | CCn1c(NC(=O)Cc2ccc(C)c(OC)c2)nc2ccccc21 | 8.25 | IC50 (PBLUC_HILL_SLOPE 4.04, PBLUC_R_SQUARED 0.646, read-out: LUCIFERASE INFECTION ASSAY - IC50): 4.79 µM
34 | O=C(NCCSCc1ccccc1Cl)c1cccs1 | 8.99 | IC50 (PBLUC_HILL_SLOPE 3.91, PBLUC_R_SQUARED 0.447, read-out: LUCIFERASE INFECTION ASSAY - IC50): 5.12 µM
35 | O=C(CNc1ccc(C(F)(F)F)cc1Cl)Nc1cccc(C(=O)NC2CC2)c1 | 7.38 | IC50 (PBLUC_HILL_SLOPE 3.94, PBLUC_R_SQUARED 0.579, read-out: LUCIFERASE INFECTION ASSAY - IC50): 4.23 µM
36 | CCNC(=O)C(C)NC(=O)c1cc(-c2ccccc2)nc2c1cnn2Cc1ccccc1Cl (configuration not stated) | 0.0487 | IC50 [1]: 0.0279 µM
37 | O=C(NC1CC1)c1ccc(CN(C2CC2)S(=O)(=O)c2cccs2)cc1 | > 10 | IC50 (PBLUC_HILL_SLOPE 4.12, PBLUC_R_SQUARED 0.383, read-out: LUCIFERASE INFECTION ASSAY - IC50): 7.92 µM
38 | O=C1C(=O)N(Cc2ccncc2)c2ccccc21 | > 13.9 | IC50 (PBLUC_HILL_SLOPE 4.07, PBLUC_R_SQUARED 0.778, read-out: LUCIFERASE INFECTION ASSAY - IC50): 8.1 µM
39 | Cc1ccc(N(CC(=O)Nc2ccc(F)cc2F)C2=NC(=O)CS2)cc1 | 9.47 | IC50 (PBLUC_HILL_SLOPE 3.93, PBLUC_R_SQUARED 0.513, read-out: LUCIFERASE INFECTION ASSAY - IC50): 5.41 µM
40 | N#Cc1ccc(-c2cnc3cnc(-c4cccc(Cl)c4)cn23)cc1 | > 9.98 | IC50 (PBLUC_HILL_SLOPE 4, PBLUC_R_SQUARED 0.258, read-out: LUCIFERASE INFECTION ASSAY - IC50): 8.15 µM
41 | O=C(NNC(=O)c1csnn1)c1ccc(C(F)(F)F)cc1 | 1.19 | IC50 (PBLUC_HILL_SLOPE 3.95, PBLUC_R_SQUARED 0.658, read-out: LUCIFERASE INFECTION ASSAY - IC50): 0.684 µM
